pIC50: −log10 of the molar value. Structures can show the parent of a compound that is named as a salt.
Columns and labels:
Experiment in all cases: cells
LAN-6 = type: functional, cell-based, Homo sapiens;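 further: growth inhibition of LAN-6 cells, determined with a cell viability assay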
Description: SANGER: Inhibition of human LAN-6 cell growth in a cell viability assay.

TE-5 = type: functional, cell-based, Homo sapiens;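 further: inhibition of cell growth, read out by a cell viability assay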
Description: SANGER: Inhibition of human TE-5 cell growth in a cell viability assay.

no-11 = type: functional, cell-based, Homo sapiens;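 further: growth inhibition of human NO-11 cells, read out with a cell viability assay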
Description: SANGER: Inhibition of human no-11 cell growth in a cell viability assay.

SHP77 = type: functional, cell-based, Homo sapiens, SHP-77;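 further: growth inhibition of human SHP-77 cells measured by a cell viability assay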
Description: SANGER: Inhibition of human SHP-77 cell growth in a cell viability assay.

ML-2 = type: functional, cell-based, Homo sapiens;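 further: growth inhibition of ML-2 cells, measured with a cell viability readout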
Description: SANGER: Inhibition of human ML-2 cell growth in a cell viability assay.

CGTH-W-1 = type: functional, cell-based, Homo sapiens;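 further: growth inhibition of human CGTH-W-1 cells measured by cell viability assay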
Description: SANGER: Inhibition of human CGTH-W-1 cell growth in a cell viability assay.

KS-1 = type: functional, cell-based, Homo sapiens;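 further: growth inhibition of KS-1 cells, read out with a cell viability assay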
Description: SANGER: Inhibition of human KS-1 cell growth in a cell viability assay.

HH = type: functional, cell-based, Homo sapiens
Description: SANGER: Inhibition of human HH cell growth in a cell viability assay.

TE-12 = type: functional, cell-based, Homo sapiens;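 further: growth inhibition of TE-12 cells, read out by a cell viability assay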
Description: SANGER: Inhibition of human TE-12 cell growth in a cell viability assay.

TE-9 = type: functional, cell-based, Homo sapiens;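 further: cell growth inhibition, measured with a cell viability readout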
Description: SANGER: Inhibition of human TE-9 cell growth in a cell viability assay.

8-MG-BA = type: functional, cell-based, Homo sapiens;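 further: growth inhibition of 8-MG-BA cells, read out with a cell viability assay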
Description: SANGER: Inhibition of human 8-MG-BA cell growth in a cell viability assay.

LB771-HNC = type: functional, cell-based, Homo sapiens;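 further: growth inhibition of LB771-HNC human cells, read out with a cell viability assay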
Description: SANGER: Inhibition of human LB771-HNC cell growth in a cell viability assay.

EW-1 = type: functional, cell-based, Homo sapiens
Description: SANGER: Inhibition of human EW-1 cell growth in a cell viability assay.

A388 = type: functional, cell-based, Homo sapiens;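 further: growth inhibition of human A388 cells, read out with a cell viability assay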
Description: SANGER: Inhibition of human A388 cell growth in a cell viability assay.

JAR = type: functional, cell-based, Homo sapiens;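 further: growth inhibition of human JAR cells determined with a cell viability assay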
Description: SANGER: Inhibition of human JAR cell growth in a cell viability assay.

SW982 = type: functional, cell-based, Homo sapiens;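 further: growth inhibition of SW982 cells, read out with a cell viability assay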
Description: SANGER: Inhibition of human SW982 cell growth in a cell viability assay.

COLO-320-HSR = type: functional, cell-based, Homo sapiens;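 further: growth inhibition of COLO-320-HSR cells, determined with a cell viability assay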
Description: SANGER: Inhibition of human COLO-320-HSR cell growth in a cell viability assay.

EOL1 = type: functional, cell-based, Homo sapiens;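 further: growth inhibition of EoL-1 cells, read out by a cell viability assay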
Description: SANGER: Inhibition of human EoL-1-cell cell growth in a cell viability assay.

KNS-42 = type: functional, cell-based, Homo sapiens;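 further: growth inhibition of KNS-42 cells, read out with a cell viability assay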
Description: SANGER: Inhibition of human KNS-42 cell growth in a cell viability assay.

NCI-H1299 = type: functional, cell-based, Homo sapiens;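 further: growth inhibition of human NCI-H1299 cells, read out by a cell viability assay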
Description: SANGER: Inhibition of human NCI-H1299 cell growth in a cell viability assay.

ALL-PO = type: functional, cell-based, Homo sapiens;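 further: growth inhibition of ALL-PO cells, read out by a cell viability assay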
Description: SANGER: Inhibition of human ALL-PO cell growth in a cell viability assay.

KM-H2 = type: functional, cell-based, Homo sapiens;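 further: growth inhibition of KM-H2 cells, read out by a cell viability assay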
Description: SANGER: Inhibition of human KM-H2 cell growth in a cell viability assay.

COLO-668 = type: functional, cell-based, Homo sapiens
Description: SANGER: Inhibition of human COLO-668 cell growth in a cell viability assay.

EW-11 = type: functional, cell-based, Homo sapiens;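 further: growth inhibition of human EW-11 cells, measured with a cell viability assay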
Description: SANGER: Inhibition of human EW-11 cell growth in a cell viability assay.

DB = type: functional, cell-based, Homo sapiens
Description: SANGER: Inhibition of human DB cell growth in a cell viability assay.

NCI-H720 = type: functional, cell-based, Homo sapiens;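 further: growth inhibition of human NCI-H720 cells determined by a cell viability assay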
Description: SANGER: Inhibition of human NCI-H720 cell growth in a cell viability assay.

MZ7-mel = type: functional, cell-based, Homo sapiens;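 further: growth inhibition of human MZ7-mel cells, measured by a cell viability assay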
Description: SANGER: Inhibition of human MZ7-mel cell growth in a cell viability assay.

HL-60 = type: functional, cell-based, Homo sapiens;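 further: growth inhibition of human HL-60 cells, read out with a cell viability assay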
Description: SANGER: Inhibition of human HL-60 cell growth in a cell viability assay.

GAK = type: functional, cell-based, Homo sapiens;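 further: cell growth inhibition read out by a cell viability assay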
Description: SANGER: Inhibition of human GAK cell growth in a cell viability assay.

KURAMOCHI = type: functional, cell-based, Homo sapiens;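 further: growth inhibition of KURAMOCHI cells, read out with a cell viability assay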
Description: SANGER: Inhibition of human KURAMOCHI cell growth in a cell viability assay.

COLO-829 = type: functional, cell-based, Homo sapiens
Description: SANGER: Inhibition of human COLO-829 cell growth in a cell viability assay.

COLO-800 = type: functional, cell-based, Homo sapiens;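 further: growth inhibition of COLO-800 cells, read out with a cell viability assay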
Description: SANGER: Inhibition of human COLO-800 cell growth in a cell viability assay.

HCE-4 = type: functional, cell-based, Homo sapiens;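 further: cell viability assay measuring inhibition of growth in the human HCE-4 cell line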
Description: SANGER: Inhibition of human HCE-4 cell growth in a cell viability assay.

EW-16 = type: functional, cell-based, Homo sapiens;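 further: growth inhibition of human EW-16 cells, read out as cell viability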
Description: SANGER: Inhibition of human EW-16 cell growth in a cell viability assay.

LS-123 = type: functional, cell-based, Homo sapiens
Description: SANGER: Inhibition of human LS-123 cell growth in a cell viability assay.

TE-8 = type: functional, cell-based, Homo sapiens;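 further: growth inhibition of TE-8 cells, measured with a cell viability readout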
Description: SANGER: Inhibition of human TE-8 cell growth in a cell viability assay.

Calu-6 = type: functional, cell-based, Homo sapiens;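 further: growth of human Calu-6 cells, read out by a cell viability assay, IC50 marking inhibition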
Description: SANGER: Inhibition of human Calu-6 cell growth in a cell viability assay.

A253 cell line = type: functional, cell-based, Homo sapiens;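 further: growth inhibition of A253 cells, read out with a cell viability assay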
Description: SANGER: Inhibition of human A253 cell growth in a cell viability assay.

BV-173 = type: functional, cell-based, Homo sapiens
Description: SANGER: Inhibition of human BV-173 cell growth in a cell viability assay.

COLO-684 = type: functional, cell-based, Homo sapiens
Description: SANGER: Inhibition of human COLO-684 cell growth in a cell viability assay.

HDLM-2 = type: functional, cell-based, Homo sapiens;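 further: cell viability assay measuring suppression of HDLM-2 proliferation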
Description: SANGER: Inhibition of human HDLM-2 cell growth in a cell viability assay.

NCI-H1395 = type: functional, cell-based, Homo sapiens;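 further: cell viability assay read-out quantifying reduced proliferation of human NCI-H1395 cells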
Description: SANGER: Inhibition of human NCI-H1395 cell growth in a cell viability assay.

D-392MG = type: functional, cell-based, Homo sapiens
D283 Med = type: functional, cell-based, Homo sapiens
Description: SANGER: Inhibition of human D-283MED cell growth in a cell viability assay.

ES8 = type: functional, cell-based, Homo sapiens;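 further: growth inhibition of human ES8 cells, read out with a cell viability assay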
Description: SANGER: Inhibition of human ES8 cell growth in a cell viability assay.

HCC 2998 = type: functional, cell-based, Homo sapiens;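 further: growth inhibition of human HCC2998 cells, measured with a cell viability read-out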
Description: SANGER: Inhibition of human HCC2998 cell growth in a cell viability assay.

LOX IMVI = type: functional, cell-based, Homo sapiens
Description: SANGER: Inhibition of human LOXIMVI cell growth in a cell viability assay.

BB30-HNC = type: functional, cell-based, Homo sapiens;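 further: growth inhibition of the cultured cell line, read out by a cell viability assay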
Description: SANGER: Inhibition of human BB30-HNC cell growth in a cell viability assay.

For O=C(O)c1ccc(-c2c[nH]c3ncc(-c4ccccc4)cc23)cc1C1CCCC1 [GSK-650394], the pIC50 (LAN-6; Homo sapiens, LAN-6) was less than 4.80, the pIC50 (TE-5; Homo sapiens, TE-5) was less than 4.80 and the pIC50 (no-11; Homo sapiens) was less than 4.80. For the same compound, the pIC50 (SHP77; Homo sapiens, SHP77) was less than 4.80, the pIC50 (ML-2; Homo sapiens, ML-2) was less than 4.80 and the pIC50 (CGTH-W-1; Homo sapiens, CGTH-W-1) was 5.68. It also gave a pIC50 (KS-1; Homo sapiens, KS-1) of less than 4.80, a pIC50 (HH; Homo sapiens, HH) of less than 4.80 and a pIC50 (TE-12; Homo sapiens, TE-12) of 5.70. The pIC50 (TE-9; Homo sapiens, TE-9) was less than 4.80, the pIC50 (8-MG-BA; Homo sapiens, 8-MG-BA) was 4.81 and the pIC50 (LB771-HNC; Homo sapiens, LB771-HNC) was less than 4.80. For the same compound, the pIC50 (EW-1; Homo sapiens, EW-1) was less than 4.80, the pIC50 (A388; Homo sapiens, A388) was 5.12 and the pIC50 (JAR; Homo sapiens, JAR) was less than 4.80. For the same compound, the pIC50 (SW982; Homo sapiens, SW982) was 4.86, the pIC50 (COLO-320-HSR; Homo sapiens, COLO-320-HSR) was less than 4.80 and the pIC50 (EOL1; Homo sapiens, EOL1) was 4.95. The pIC50 (KNS-42; Homo sapiens, KNS-42) was less than 4.80, the pIC50 (NCI-H1299; Homo sapiens, NCI-H1299) was 5.22 and the pIC50 (ALL-PO; Homo sapiens, ALL-PO) was 5.24. The pIC50 (KM-H2; Homo sapiens, KM-H2) was less than 4.80, the pIC50 (COLO-668; Homo sapiens, COLO-668) was less than 4.80 and the pIC50 (EW-11; Homo sapiens, EW-11) was less than 4.80. The pIC50 (DB; Homo sapiens, DB) was less than 4.80, the pIC50 (NCI-H720; Homo sapiens, NCI-H720) was less than 4.80 and the pIC50 (MZ7-mel; Homo sapiens, MZ7-mel) was less than 4.80. The pIC50 (HL-60; Homo sapiens, HL-60) was less than 4.80, the pIC50 (GAK; Homo sapiens, GAK) was less than 4.80 and the pIC50 (KURAMOCHI; Homo sapiens, KURAMOCHI) was less than 4.80. The pIC50 (COLO-829; Homo sapiens, COLO-829) was less than 4.80, the pIC50 (COLO-800; Homo sapiens, COLO-800) was less than 4.80 and the pIC50 (HCE-4; Homo sapiens, HCE-4) was 5.12. The pIC50 (EW-16; Homo sapiens, EW-16) was 5.24, the pIC50 (LS-123; Homo sapiens, LS-123) was less than 4.80 and the pIC50 (TE-8; Homo sapiens, TE-8) was 5.39. For the same compound, the pIC50 (Calu-6; Homo sapiens, Calu-6) was less than 4.80, the pIC50 (A253 cell line; Homo sapiens, A253) was less than 4.80 and the pIC50 (BV-173; Homo sapiens, BV-173) was less than 4.80. For the same compound, the pIC50 (COLO-684; Homo sapiens, COLO-684) was less than 4.80, the pIC50 (HDLM-2; Homo sapiens, HDLM-2) was less than 4.80 and the pIC50 (NCI-H1395; Homo sapiens, NCI-H1395) was less than 4.80. For the same compound, the pIC50 (D-392MG; Homo sapiens, D-392MG) was less than 4.80, the pIC50 (D283 Med; Homo sapiens, D283 Med) was less than 4.80 and the pIC50 (ES8; Homo sapiens, ES8) was 5.15. The pIC50 (HCC 2998; Homo sapiens, HCC 2998) was less than 4.80, the pIC50 (LOX IMVI; Homo sapiens, LOX IMVI) was less than 4.80 and the pIC50 (BB30-HNC; Homo sapiens, BB30-HNC) was 5.63.
Compound COC1=CC(c2cc3ccccc3[nH]2)=N/C1=C\c1[nH]c(C)cc1C [OBATOCLAX MESYLATE] has a pIC50 (LAN-6; Homo sapiens, LAN-6) of 5.72, a pIC50 (TE-5; Homo sapiens, TE-5) of 6.32 and a pIC50 (no-11; Homo sapiens) of 5.82. It also gave a pIC50 (SHP77; Homo sapiens, SHP77) of 5.70, a pIC50 (ML-2; Homo sapiens, ML-2) of 6.64 and a pIC50 (CGTH-W-1; Homo sapiens, CGTH-W-1) of 6.40. The pIC50 (KS-1; Homo sapiens, KS-1) was 6.52, the pIC50 (HH; Homo sapiens, HH) was 6.15 and the pIC50 (TE-12; Homo sapiens, TE-12) was 6.48. It also gave a pIC50 (TE-9; Homo sapiens, TE-9) of 6.63, a pIC50 (8-MG-BA; Homo sapiens, 8-MG-BA) of 7.11 and a pIC50 (LB771-HNC; Homo sapiens, LB771-HNC) of 6.99. The pIC50 (EW-1; Homo sapiens, EW-1) was greater than 7.20, the pIC50 (A388; Homo sapiens, A388) was 7.24 and the pIC50 (JAR; Homo sapiens, JAR) was less than 4.80. For the same compound, the pIC50 (SW982; Homo sapiens, SW982) was 6.35, the pIC50 (COLO-320-HSR; Homo sapiens, COLO-320-HSR) was 7.28 and the pIC50 (EOL1; Homo sapiens, EOL1) was 6.94. For the same compound, the pIC50 (KNS-42; Homo sapiens, KNS-42) was 6.40, the pIC50 (NCI-H1299; Homo sapiens, NCI-H1299) was 7.21 and the pIC50 (ALL-PO; Homo sapiens, ALL-PO) was 6.62. The pIC50 (KM-H2; Homo sapiens, KM-H2) was 6.15, the pIC50 (COLO-668; Homo sapiens, COLO-668) was 5.88 and the pIC50 (EW-11; Homo sapiens, EW-11) was 5.29. For the same compound, the pIC50 (DB; Homo sapiens, DB) was 6.63, the pIC50 (NCI-H720; Homo sapiens, NCI-H720) was less than 4.80 and the pIC50 (MZ7-mel; Homo sapiens, MZ7-mel) was greater than 7.20. It also gave a pIC50 (HL-60; Homo sapiens, HL-60) of 5.90, a pIC50 (GAK; Homo sapiens, GAK) greater than 7.20 and a pIC50 (KURAMOCHI; Homo sapiens, KURAMOCHI) of 7.07. The pIC50 (COLO-829; Homo sapiens, COLO-829) was 6.14, the pIC50 (COLO-800; Homo sapiens, COLO-800) was 5.28 and the pIC50 (HCE-4; Homo sapiens, HCE-4) was 6.69. For the same compound, the pIC50 (EW-16; Homo sapiens, EW-16) was 7.41, the pIC50 (LS-123; Homo sapiens, LS-123) was 7.06 and the pIC50 (TE-8; Homo sapiens, TE-8) was 7.01. The pIC50 (Calu-6; Homo sapiens, Calu-6) was 7.04, the pIC50 (A253 cell line; Homo sapiens, A253) was 6.24 and the pIC50 (BV-173; Homo sapiens, BV-173) was 5.74. The pIC50 (COLO-684; Homo sapiens, COLO-684) was 6.18, the pIC50 (HDLM-2; Homo sapiens, HDLM-2) was 6.38 and the pIC50 (NCI-H1395; Homo sapiens, NCI-H1395) was less than 4.80. The pIC50 (D-392MG; Homo sapiens, D-392MG) was 5.80, the pIC50 (D283 Med; Homo sapiens, D283 Med) was 5.95 and the pIC50 (ES8; Homo sapiens, ES8) was 6.93. For the same compound, the pIC50 (HCC 2998; Homo sapiens, HCC 2998) was greater than 7.20, the pIC50 (LOX IMVI; Homo sapiens, LOX IMVI) was 7.21 and the pIC50 (BB30-HNC; Homo sapiens, BB30-HNC) was greater than 7.20.
Compound BLEOMYCIN has a pIC50 (LAN-6; lan-6) of 4.83, a pIC50 (TE-5; te-5) of 5.10 and a pIC50 (no-11) of 4.07. For the same compound, the pIC50 (SHP77; shp-77) was 3.85, the pIC50 (ML-2; ml-2) was 6.88 and the pIC50 (CGTH-W-1; cgth-w-1) was 5.37. The pIC50 (KS-1; ks-1) was 7.96, the pIC50 (HH; hh) was 5.64 and the pIC50 (TE-12; te-12) was 6.14. It also gave a pIC50 (TE-9; te-9) of 4.47, a pIC50 (8-MG-BA; 8-mg-ba) of 5.83 and a pIC50 (LB771-HNC; lb771-hnc) of 3.68. It also gave a pIC50 (EW-1; ew-1) of 5.74, a pIC50 (A388; a388) of 6.06 and a pIC50 (JAR; jar) of 3.69. It also gave a pIC50 (SW982; sw982) of 6.38, a pIC50 (COLO-320-HSR; colo-320-hsr) of 5.46 and a pIC50 (EOL1; eol1) of 5.62. It also gave a pIC50 (KNS-42; kns-42) of 3.16, a pIC50 (NCI-H1299; nci-h1299) of 6.97 and a pIC50 (ALL-PO; all-po) of 6.01. For the same compound, the pIC50 (KM-H2; km-h2) was 5.16, the pIC50 (COLO-668; colo-668) was 10.66 and the pIC50 (EW-11; ew-11) was 5.19. It also gave a pIC50 (DB; db) of 5.29, a pIC50 (NCI-H720; nci-h720) of 3.99 and a pIC50 (MZ7-mel; mz7-mel) of 6.88. It also gave a pIC50 (HL-60; hl-60) of 4.45, a pIC50 (GAK; gak) of 3.90 and a pIC50 (KURAMOCHI; kuramochi) of 5.69. It also gave a pIC50 (COLO-829; colo-829) of 4.43, a pIC50 (COLO-800; colo-800) of 5.66 and a pIC50 (HCE-4; hce-4) of 6.34. For the same compound, the pIC50 (EW-16; ew-16) was 8.16, the pIC50 (LS-123; ls-123) was 4.63 and the pIC50 (TE-8; te-8) was 6.42. The pIC50 (Calu-6; calu-6) was 5.12, the pIC50 (A253 cell line; a253) was 5.54 and the pIC50 (BV-173; bv-173) was 6.07. The pIC50 (COLO-684; colo-684) was 3.62, the pIC50 (HDLM-2; hdlm-2) was 4.84 and the pIC50 (NCI-H1395; nci-h1395) was 3.42. For the same compound, the pIC50 (D-392MG; d-392mg) was 4.87, the pIC50 (D283 Med; d283 med) was 5.42 and the pIC50 (ES8; es8) was 5.85. It also gave a pIC50 (HCC 2998; hcc 2998) of 8.18, a pIC50 (LOX IMVI; lox imvi) of 6.34 and a pIC50 (BB30-HNC; bb30-hnc) of 7.79.

— ChEMBL document CHEMBL1201861, “Genomics of Drug Sensitity in Cancer screening data, Wellcome Trust Sanger Institute”
